Data set [1] concerns cystinosis fibroblast cell culture. The following applies: compared with cysteamine (Thoene 1976); cited from earlier work.
Details of data set [2]: species or system male Sprague Dawley rats. The conditions noted are these: rat, in vivo. How it is done:
Cystamine dihydrochloride and cysteamine hydrochloride were administered to rats 1) orally on an empty stomach; 2) orally on full stomach; and 3) intra-cecum to evaluate the pharmacokinetics of cystamine and to compare it to cysteamine pharmacokinetics. Oral administration (PO) simulated immediate-release (IR) formulations. Intra-cecum (IC) administration simulated large intestine release (LIR) formulations, which provides a time to Cmax of more than 4 hours after administration.
Animal studies were performed by Absorption Systems. Test articles: Cysteamine hydrochloride (CH), 98%; Cystamine dihydrochloride (HCCH), 95-96% (both obtained from Sigma Aldrich). CH has one cysteamine base, while HCCH, upon disulfide bond reduction, yields two cysteamine molecules. CH and HCCH were administered at a dose selected to deliver 30 mg/kg of cysteamine base (44.2 mg/kg and 43.8 mg/kg respectively), so that each rat received same number of cysteamine molecules. Test articles (dry powder) were dissolved in 3 mL for PO and in 0.5 mL for IC of room temperature water no more than 15 minutes before dosing.
Five (5) male Sprague Dawley rats ˜300-350 gram (Envigo) were used per group, with 6 groups total.
All animals were healthy at the start of the trial and assigned randomly to the study groups by weight. Fed state animals had food and water supplied ad libitum. Fasted state animals had food removed at least 12 hours prior to dosing and food was returned 4 hours post dosing; water was supplied ad libitum. Oral gavage needle and syringe were used for oral administration. For IC dose administration, the animals were anesthetized with isoflurane regulated at ˜1-3% in oxygen. The abdominal cavity was surgically opened and the proximal large intestine was exposed. A test article was administered directly into the proximal large intestine with a 1 cc disposable syringe equipped with a 25 g hypodermic needle. The surgical site was then closed with staples or suture.
Blood was sampled from jugular vein at the following time points: pre-dose, 15, 30, 60, 120, 180, and 240 minutes post dose. Blood samples were collected into tubes containing TBD anticoagulant, then centrifuged at a temperature of 4° C., at 3,000×g, for 5 minutes. Once prepared, plasma samples were snap frozen. Plasma samples were stored at −80° C. until analysis.
Sample analysis was performed by Integrated Analytical Solutions. To measure plasma cysteamine, to 10 uL of a plasma sample or standard was added 10 uL of internal standard with reduction solution: 5 ug/mL d4-cysteamine (CDN Isotopes), 10 mM TCEP in water, prepared fresh, and mixed thoroughly. The mixture was incubated at 37° C. for 60 minutes, then 40 uL of 5% trichloroacetic acid was added and the solution was mixed thoroughly. Samples were then centrifuged at 6100 g for 30 minutes. Next, 20 uL of each supernatant were transferred to an autosampler plate and sealed with a cap mat. The concentration of cysteamine was measured by use of LC/MS/MS tandem mass spectroscopy. Column Atlantis T3 2.1×30mm, 3um was used at a room temperature; mobile phase A: 0.1% heptafluorobutyric acid in water; mobile phase B: 0.2% formic acid in acetonitrile; injection volume: 3 uL. (API 4000 LC/MS/MS; Applied Biosystems). The following MS parameters were used—HPLC system: Shimadzu VP Series 10 System; MS/MS: Applied Biosystems/MDS SCIEX API 4000; software: Analyst v1.6.3; isolation method: Electrospray, Positive Ion; source temperature: TurbolonSpray (ESI) at 400°. Cysteamine concentrations were calculated with a calibration curve that was prepared by spiking plasma with buffered cysteamine solutions, and quality control samples were analyzed with each batch.

The source of these data is patent US20240009148A1, “Cystamine Formulations and Uses Thereof” (Birch Therapeutics, Inc., priority 2020, published 2024).

The structures appear in SMILES notation. Counter-ions that a name gives are not always drawn. Like-named read-outs stand apart in the source and are kept apart here.

Consider `NCCSSCCN` [Cystamine], for which the “Decrease of lysosomal cystine” value in data set [1] is “comparably to cysteamine”.

Turning to `Cl.Cl.NCCSSCCN` [HCCH, Cystamine dihydrochloride], in data set [2] (male, Sprague Dawley, po), the “AUC for dosing into the large intestine lower than AUC for oral dosing” value stood at 25% and the “Cmax for IC dosing lower than Cmax after oral administration” value is reported as “more than 50%”. Also, in data set [2], the “Absorption pattern after dosing to the large intestine” value is recorded as “not rapid, but rather sustained”. In data set [2] (po), the “Cmax of plasma cysteamine compared to CH” value is recorded as “higher Cmax”.

As for `NCCS` [CH, Cysteamine hydrochloride, reference compound], in data set [2], the “Cmax of plasma cysteamine, IC compared to PO fasted” value was “higher” and the “Tmax (time to Cmax) of plasma cysteamine” value turned out to be 15 min. Also, in data set [2] (po), the “Tmax (time to Cmax) of plasma cysteamine” value is on record as 15 min.
